Assay results taken from patent US20240280594A1, “MULTIWELL PLATE LIPOPHILICITY ASSAY” (Hoffmann-La Roche Inc., priority 2021, published 2024).
Where two headings read alike, the source gives them in different places.

Tests used:
physchem = conditions: pH 7.4
[1] = cited from earlier work
[2] = pH 7.4
[3] = shake flask, pH 7.4, average literature value

| SMILES | logD at 90 min (physchem) | Literature LogD [1, 3] | also measured |
| --- | --- | --- | --- |
| CCCSc1ccc2nc(NC(=O)OC)[nH]c2c1 [Albendazole] | 3.41 | 3.29 | – |
| C=CCc1ccccc1OCC(O)CNC(C)C (centres unmarked) [Alprenolol] | 1.03 | 0.88 | – |
| CN(C)CCC=C1c2ccccc2CCc2ccccc21 [Amitriptyline] | 2.87 | 2.79 | – |
| NC(=O)N1c2ccccc2C=Cc2ccccc21 [Carbamazepine] | 1.59 | – | – |
| CN(C)CCCN1c2ccccc2Sc2ccc(Cl)cc21 [Chlorpromazine] | 3.26 | 3.16 | – |
| NS(=O)(=O)c1cc(C2(O)NC(=O)c3ccccc32)ccc1Cl (centres unmarked) [Chlorthalidone] | 0.9 | – | – |
| CN(C)CCCN1c2ccccc2CCc2ccc(Cl)cc21 [Clomipramine] | 3.46 | 3.28 | – |
| C[C@@H]1C[C@H]2[C@@H]3CCC4=CC(=O)C=C[C@]4(C)[C@@]3(F)[C@@H](O)C[C@]2(C)[C@@]1(O)C(=O)CO [Dexamethason] | – | – | CAMDIS FBP LogD [2]: 1.82; Literature LogD ([1]; pH 7.4): 1.82 |
| O=C(O)Cc1ccccc1Nc1c(Cl)cccc1Cl [Diclofenac] | 1.12 | 1.14 | – |
| CC(C(=O)O)c1ccc(-c2ccccc2)c(F)c1 (centres unmarked) [Flurbiprofen] | 0.8 | 0.91 | – |
| COc1ccc(Cl)cc1C(=O)NCCc1ccc(S(=O)(=O)NC(=O)NC2CCCCC2)cc1 [Glyburide] | – | 2.19 | – |
| COC1=CC(=O)C[C@@H](C)[C@]12Oc1c(Cl)c(OC)cc(OC)c1C2=O [Griseofulvin] | 2.19 | – | – |
| CC(C)Cc1ccc(C(C)C(=O)O)cc1 (centres unmarked) [Ibuprofen] | 0.97 | 1.27 | – |
| COc1ccc2c(c1)c(CC(=O)O)c(C)n2C(=O)c1ccc(Cl)cc1 [Indomethacin] | 0.87 | 0.76 | – |
| CC(C(=O)O)c1cccc(C(=O)c2ccccc2)c1 (centres unmarked) [Ketoprofen] | – | −0.23 | – |
| CC(CCc1ccccc1)NCC(O)c1ccc(O)c(C(N)=O)c1 (centres unmarked) [Labetalol] | 1.08 | 1.09 | – |
| CCCC(C)(COC(N)=O)COC(N)=O [Meprobamate] | – | – | logD (physchem): 0.76; Literature LogD ([1]; pH 7.4): 0.7 |
| CN1CCCCC1CCN1c2ccccc2Sc2ccc([S+](C)[O-])cc21 (centres unmarked) [Mesoridazine] | 1.74 | 1.81 | – |
| COCCc1ccc(OCC(O)CNC(C)C)cc1 (centres unmarked) [Metoprolol] | 0.06 | −0.17 | – |
| Cc1ncc([N+](=O)[O-])n1CCO [Metronidazole] | -0.22 | −0.07 | – |
| COCCOC(=O)C1=C(C)NC(C)=C(C(=O)OC(C)C)C1c1cccc([N+](=O)[O-])c1 (centres unmarked) [Nimodipine] | 3.95 | 4.18 | – |
| CC(=O)Nc1ccc(O)cc1 [Paracetamol] | – | 0.3 | – |
| O=C1NC(=O)C(c2ccccc2)(c2ccccc2)N1 [Phenytoin] | 2.32 | 2.23 | – |
| C[C@]12C=CC(=O)C=C1CC[C@@H]1[C@@H]2[C@@H](O)C[C@@]2(C)[C@H]1CC[C@]2(O)C(=O)CO [Prednisolone] | 1.53 | 1.45 | – |
| CCC1(c2ccccc2)C(=O)NCNC1=O [Primidone] | 0.74 | 0.91 | – |
| CC(=O)[C@H]1CC[C@H]2[C@@H]3CCC4=CC(=O)CC[C@]4(C)[C@H]3CC[C@]12C [Progesterone] | – | – | Literature LogD ([1]; pH 7.4): 3.76 |
| C[C@]12CC[C@H]3[C@@H](CCC4=CC(=O)CC[C@@]43C)[C@@H]1CC[C@@H]2O [Testosterone] | – | – | Literature LogD ([1]; pH 7.4): 3.23 |
| Cn1c(=O)c2[nH]cnc2n(C)c1=O [Theophyline] | – | – | CAMDIS FBP LogD [2]: −0.16; Literature LogD ([1]; pH 7.4): −0.02 |
| CC(=O)CC(c1ccccc1)c1c(O)c2ccccc2oc1=O (centres unmarked) [Warfarin] | – | – | logD (physchem): 0.87; Literature LogD ([1]; pH 7.4): 1.12 |
